Where only a bound is given, the exact number is not on record here.

The source of these data is patent publication US8435980B2 (AbbVie Inc., priority 2009, dated 2013).

T1 sequence (O00311 whole entry): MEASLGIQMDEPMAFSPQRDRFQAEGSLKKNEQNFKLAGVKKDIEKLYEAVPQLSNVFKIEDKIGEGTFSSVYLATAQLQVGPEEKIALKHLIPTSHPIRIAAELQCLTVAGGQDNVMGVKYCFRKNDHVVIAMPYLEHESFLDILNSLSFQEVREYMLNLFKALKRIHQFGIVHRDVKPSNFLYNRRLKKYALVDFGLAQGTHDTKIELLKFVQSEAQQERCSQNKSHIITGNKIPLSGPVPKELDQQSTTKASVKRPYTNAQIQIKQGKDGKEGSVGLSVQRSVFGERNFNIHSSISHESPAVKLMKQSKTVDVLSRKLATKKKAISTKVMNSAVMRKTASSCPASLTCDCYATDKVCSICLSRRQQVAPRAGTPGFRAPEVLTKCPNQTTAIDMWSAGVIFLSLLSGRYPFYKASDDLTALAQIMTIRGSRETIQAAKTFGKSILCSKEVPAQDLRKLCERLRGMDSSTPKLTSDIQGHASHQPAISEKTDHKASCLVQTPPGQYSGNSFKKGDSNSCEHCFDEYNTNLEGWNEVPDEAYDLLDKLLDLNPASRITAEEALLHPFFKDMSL
T1 sequence (Q9UBU7 whole entry partner): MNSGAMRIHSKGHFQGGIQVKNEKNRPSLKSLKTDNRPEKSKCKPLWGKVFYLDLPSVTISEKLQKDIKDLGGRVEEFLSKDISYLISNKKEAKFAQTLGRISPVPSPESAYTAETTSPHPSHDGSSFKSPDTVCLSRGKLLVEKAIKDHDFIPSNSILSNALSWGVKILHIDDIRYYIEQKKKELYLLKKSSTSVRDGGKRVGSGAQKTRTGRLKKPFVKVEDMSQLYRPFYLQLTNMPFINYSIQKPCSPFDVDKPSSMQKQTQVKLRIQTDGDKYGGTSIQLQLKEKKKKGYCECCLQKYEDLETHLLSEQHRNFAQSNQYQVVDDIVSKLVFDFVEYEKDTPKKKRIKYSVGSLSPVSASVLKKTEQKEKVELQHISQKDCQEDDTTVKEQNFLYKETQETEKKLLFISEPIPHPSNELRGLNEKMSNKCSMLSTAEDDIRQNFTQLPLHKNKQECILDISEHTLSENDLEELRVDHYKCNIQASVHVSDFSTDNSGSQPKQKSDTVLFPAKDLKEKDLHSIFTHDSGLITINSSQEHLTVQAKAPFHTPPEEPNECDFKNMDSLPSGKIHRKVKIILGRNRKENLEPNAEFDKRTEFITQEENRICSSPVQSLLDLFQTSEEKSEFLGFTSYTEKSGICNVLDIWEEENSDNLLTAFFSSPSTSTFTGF

This assay addresses T1, Cdc7 (BEV coexpressed huCDC7/DBF4) (Homo sapiens, UniProt O00311).
T1 construct: made in house; host or cells: BEV (baculovirus expression vector) co-expression; insect cells are implied but no cell line is named
Put plainly: Cdc7 enzyme inhibition assay ([33P]ATP, biotinylated peptide substrate, FlashPlate). It is filed as biochemical. As to conditions: Table 3; enzyme inhibition data (Ki). The procedure:
Cdc7 (BEV coexpressed huCDC7/DBF4) is prepared internally. Cdc7 assays are conducted as follows with final concentrations as listed. […] Reactions are quenched after 1 hr by the addition of 90 μL stop buffer (50 mM EDTA, 2M NaCl). […] (Ki) for exemplary compounds.
For orientation: Ki means a measure of affinity in units of concentration, obtained from inhibition or displacement. Read a high Ki as weaker binding. Consider `O=C(N[C@H]1CC[C@H](Nc2cc(-c3c[nH]c4ncccc34)cc(Cl)n2)CC1)C1CCN(CCO)CC1` [Example 367, N-(trans-4-{[6-chloro-4-(1H-pyrrolo[2,3-b]pyridin-3-yl)pyridin-2-yl]amino}cyclohexyl)-1-(2-hydroxyethyl)piperidine-4-carboxamide], for which the Ki is less than 0.01 µM.
In turn, `O=C(NC1CCC(CC2CCC(Nc3cc(-c4c[nH]c5ncccc45)cc(Cl)n3)CC2)CC1)C1CC1` (stereo not shown) [Example 368, N-{4-[(4-{[6-chloro-4-(1H-pyrrolo[2,3-b]pyridin-3-yl)pyridin-2-yl]amino}cyclohexyl)methyl]cyclohexyl} cyclopropanecarboxamide] showed a Ki of less than 0.01 µM.
The same measure for `CC(=O)N1CCC(NC2CCC(Nc3cc(-c4c[nH]c5ncccc45)cc(Cl)n3)CC2)CC1` (stereo not shown) [Example 369, 1-{4-[(4-{[6-chloro-4-(1H-pyrrolo[2,3-b]pyridin-3-yl)pyridin-2-yl]amino}cyclohexyl)amino]piperidin-1-yl}ethanone]: less than 0.01 µM; for `CS(=O)(=O)N1CCC(C2CCC(N(c3cc(-c4c[nH]c5ncccc45)cc(Cl)n3)S(C)(=O)=O)CC2)CC1` (stereo not shown) [Example 370, N-[6-chloro-4-(1H-pyrrolo[2,3-b]pyridin-3-yl)pyridin-2-yl]-N-{4-[1-(methylsulfonyl)piperidin-4-yl]cyclohexyl}methanesulfonamide]: 0.01 to 0.1 µM; for `CN1CCCC(C2CCC(Nc3cc(-c4c[nH]c5ncccc45)cc(Cl)n3)CC2)C1` (stereo not shown) [Example 371, 6-chloro-N-[4-(1-methylpiperidin-3-yl)cyclohexyl]-4-(1H-pyrrolo[2,3-b]pyridin-3-yl)pyridin-2-amine]: less than 0.01 µM.
Take `CN1CCCC(C2CCC(N(C)c3cc(-c4c[nH]c5ncccc45)cc(Cl)n3)CC2)C1` (stereo not shown) [Example 372, 6-chloro-N-methyl-N-[4-(1-methylpiperidin-3-yl)cyclohexyl]-4-(1H-pyrrolo[2,3-b]pyridin-3-yl)pyridin-2-amine]: the Ki is less than 0.01 µM.
Turning to `O=C(NCCS(=O)(=O)N[C@H]1CC[C@H](Nc2cc(-c3c[nH]c4ncccc34)cc(Cl)n2)CC1)C1CC1` [Example 373, N-{2-[(trans-4-{[6-chloro-4-(1H-pyrrolo[2,3-b]pyridin-3-yl)pyridin-2-yl]amino}cyclohexyl)sulfamoyl]ethyl} cyclopropanecarboxamide], the Ki was less than 0.01 µM.
The same measure for `OCCCNc1cc(-c2c[nH]c3ncccc23)cc(Cl)n1` [Example 374, 3-{[6-chloro-4-(1H-pyrrolo[2,3-b]pyridin-3-yl)pyridin-2-yl]amino}propan-1-ol]: less than 0.01 µM; for `Clc1cc(-c2c[nH]c3ncccc23)cc(NCCCN2CCOCC2)n1` [Example 375, 6-chloro-N-[3-(morpholin-4-yl)propyl]-4-(1H-pyrrolo[2,3-b]pyridin-3-yl)pyridin-2-amine]: 0.01 to 0.1 µM; for `Clc1cc(-c2c[nH]c3ncccc23)cc(NCCCn2ccnc2)n1` [Example 376, 6-chloro-N-[3-(1H-imidazol-1-yl)propyl]-4-(1H-pyrrolo[2,3-b]pyridin-3-yl)pyridin-2-amine]: less than 0.01 µM.
Under `OCCCCCNc1cc(-c2c[nH]c3ncccc23)cc(Cl)n1` [Example 377, 5-{[6-chloro-4-(1H-pyrrolo[2,3-b]pyridin-3-yl)pyridin-2-yl]amino}pentan-1-ol] stands less than 0.01 µM; under `Clc1cc(-c2c[nH]c3ncccc23)cc(NCCc2cccnc2)n1` [Example 378, 6-chloro-N-[2-(pyridin-3-yl)ethyl]-4-(1H-pyrrolo[2,3-b]pyridin-3-yl)pyridin-2-amine], less than 0.01 µM; under `NC1CCC(N2CCC(Nc3cc(-c4c[nH]c5ncccc45)cc(Cl)n3)CC2)CC1` (stereo not shown) [Example 379, N-[1-(4-aminocyclohexyl)piperidin-4-yl]-6-chloro-4-(1H-pyrrolo[2,3-b]pyridin-3-yl)pyridin-2-amine], less than 0.01 µM.
In turn, `CN1CCC(C2CCC(N(C)c3cc(-c4c[nH]c5ncccc45)cc(Cl)n3)CC2)C1` (stereo not shown) [Example 380, 6-chloro-N-methyl-N-[4-(1-methylpyrrolidin-3-yl)cyclohexyl]-4-(1H-pyrrolo[2,3-b]pyridin-3-yl)pyridin-2-amine] yielded a Ki of less than 0.01 µM.
The same measure for `O=C(N[C@H]1CC[C@H](Nc2cc(-c3c[nH]c4ncccc34)cc(Cl)n2)CC1)C1CN(Cc2ccccc2)C1` [Example 381, 1-benzyl-N-(trans-4-{[6-chloro-4-(1H-pyrrolo[2,3-b]pyridin-3-yl)pyridin-2-yl]amino}cyclohexyl)azetidine-3-carboxamide]: less than 0.01 µM; for `COc1cc(Cl)ccc1C(=O)N[C@H]1CC[C@H](Nc2cc(-c3c[nH]c4ncccc34)cc(Cl)n2)CC1` [Example 382, 4-chloro-N-(trans-4-{[6-chloro-4-(1H-pyrrolo[2,3-b]pyridin-3-yl)pyridin-2-yl]amino}cyclohexyl)-2-methoxybenzamide]: less than 0.01 µM; for `O=C(N[C@H]1CC[C@H](Nc2cc(-c3c[nH]c4ncccc34)cc(Cl)n2)CC1)c1cccc(C(F)(F)F)c1` [Example 383, N-(trans-4-{[6-chloro-4-(1H-pyrrolo[2,3-b]pyridin-3-yl)pyridin-2-yl]amino}cyclohexyl)-3-(trifluoromethyl)benzamide]: less than 0.01 µM.
Consider `Clc1cnc2[nH]cc(-c3cc(Cl)nc(NC4CCCCC4)c3)c2c1` [Example 384, 6-chloro-4-(5-chloro-1H-pyrrolo[2,3-b]pyridin-3-yl)-N-cyclohexylpyridin-2-amine], for which the Ki lay in the range of 0.01 to 0.1 µM.
In the case of `O=C(N[C@H]1CC[C@H](Nc2cc(-c3c[nH]c4ncccc34)cc(Cl)n2)CC1)c1cccc(Cl)c1` [Example 385, 3-chloro-N-(trans-4-{[6-chloro-4-(1H-pyrrolo[2,3-b]pyridin-3-yl)pyridin-2-yl]amino}cyclohexyl)benzamide], the Ki is less than 0.01 µM.
Under `COc1ccc(CNc2cc(-c3c[nH]c4ncccc34)cc(Cl)n2)cc1OC` [Example 386] stands 0.01 to 0.1 µM.
Under `Clc1cc(-c2c[nH]c3ncccc23)cc(NCCc2ccccn2)n1` [Example 387, 6-chloro-N-[2-(pyridin-2-yl)ethyl]-4-(1H-pyrrolo[2,3-b]pyridin-3-yl)pyridin-2-amine] stands less than 0.01 µM.
`Clc1cc(-c2c[nH]c3ncccc23)cc(NCCc2ccccc2)n1` [Example 388, 6-chloro-N-(2-phenylethyl)-4-(1H-pyrrolo[2,3-b]pyridin-3-yl)pyridin-2-amine] showed a Ki of less than 0.01 µM.
Under `CN1CCN(CCCNc2cc(-c3c[nH]c4ncccc34)cc(Cl)n2)CC1` [Example 389, 6-chloro-N-[3-(4-methylpiperazin-1-yl)propyl]-4-(1H-pyrrolo[2,3-b]pyridin-3-yl)pyridin-2-amine] stands 0.01 to 0.1 µM.
Compound `Clc1cc(-c2c[nH]c3ncccc23)cc(NCCOc2ccccc2)n1` [Example 390, 6-chloro-N-(2-phenoxyethyl)-4-(1H-pyrrolo[2,3-b]pyridin-3-yl)pyridin-2-amine] displayed a Ki of less than 0.01 µM.
The same measure for `CN(C)CCCNc1cc(-c2c[nH]c3ncccc23)cc(Cl)n1` [Example 391, N′-[6-chloro-4-(1H-pyrrolo[2,3-b]pyridin-3-yl)pyridin-2-yl]-N,N-dimethylpropane-1,3-diamine]: less than 0.01 µM.
The same measure for `Clc1cc(-c2c[nH]c3ncccc23)cc(NC2CCN(Cc3ccccc3)C2)n1` (stereo not shown) [Example 392, N-(1-benzylpyrrolidin-3-yl)-6-chloro-4-(1H-pyrrolo[2,3-b]pyridin-3-yl)pyridin-2-amine]: less than 0.01 µM; for `O=C(NCCS(=O)(=O)N[C@H]1CC[C@H](Nc2cc(-c3c[nH]c4ncccc34)cc(Cl)n2)CC1)c1ccc(F)cc1F` [Example 393, N-{2-[(trans-4-{[6-chloro-4-(1H-pyrrolo[2,3-b]pyridin-3-yl)pyridin-2-yl]amino}cyclohexyl)sulfamoyl]ethyl}-2,4-difluorobenzamide]: less than 0.01 µM.
The same measure for `O=C(N[C@H]1CC[C@H](Nc2cc(-c3c[nH]c4ncccc34)cc(Cl)n2)CC1)C1CN(Cc2cccc(C(F)(F)F)c2)C1` [Example 394, N-(trans-4-{[6-chloro-4-(1H-pyrrolo[2,3-b]pyridin-3-yl)pyridin-2-yl]amino}cyclohexyl)-1-[3-(trifluoromethyl)benzyl]azetidine-3-carboxamide]: less than 0.01 µM; for `O=C(N[C@H]1CC[C@H](Nc2cc(-c3c[nH]c4ncccc34)cc(Cl)n2)CC1)C1CN(Cc2ccc(Cl)cc2Cl)C1` [Example 395, N-(trans-4-{[6-chloro-4-(1H-pyrrolo[2,3-b]pyridin-3-yl)pyridin-2-yl]amino}cyclohexyl)-1-(2,4-dichlorobenzyl)azetidine-3-carboxamide]: less than 0.01 µM; for `COc1ccc(CNc2cc(-c3c[nH]c4ncccc34)cc(Cl)n2)cc1` [Example 397, 6-chloro-N-(4-methoxybenzyl)-4-(1H-pyrrolo[2,3-b]pyridin-3-yl)pyridin-2-amine]: less than 0.01 µM.
Consider `Oc1ccc(CCNc2cc(-c3c[nH]c4ncccc34)cc(Cl)n2)cc1` [Example 398, 4-(2-{[6-chloro-4-(1H-pyrrolo[2,3-b]pyridin-3-yl)pyridin-2-yl]amino}ethyl)phenol], for which the Ki is less than 0.01 µM.
The compound `Clc1cc(-c2c[nH]c3ncccc23)cc(NCCc2ccc3c(c2)OCO3)n1` [Example 399, N-[2-(1,3-benzodioxol-5-yl)ethyl]-6-chloro-4-(1H-pyrrolo[2,3-b]pyridin-3-yl)pyridin-2-amine] showed a Ki of less than 0.01 µM.
On to `Clc1cc(-c2c[nH]c3ncccc23)cc(NCc2ccc3c(c2)OCO3)n1` [Example 400, N-(1,3-benzodioxol-5-ylmethyl)-6-chloro-4-(1H-pyrrolo[2,3-b]pyridin-3-yl)pyridin-2-amine], for which the Ki was less than 0.01 µM.
In turn, `COc1ccc(CCNc2cc(-c3c[nH]c4ncccc34)cc(Cl)n2)cc1` [Example 401, 6-chloro-N-[2-(4-methoxyphenyl)ethyl]-4-(1H-pyrrolo[2,3-b]pyridin-3-yl)pyridin-2-amine] returned a Ki of less than 0.01 µM.
